Data taken from patent US10442808B2, “Pyrazolo pyrimidine derivatives and their use as MALT1 inhbitors” (NOVARTIS AG, priority 2014, dated 2019).

System: IL2 promoter
Assay: Human IL2 promoter reporter gene assay (RGA) in Jurkat cells
Format: cell-based
Description: Human IL2 Promoter Reporter Gene Assay (RGA) in Jurkat Cells
The transfected Jurkat clone K22 290_H23 was propagated in RPMI 1640 supplemented with 10% heat inactivated fetal calf serum, 50 μM 2-mercaptoethanol and 1 mg/ml Geneticin. The cell concentration should not exceed 1×10e6/ml during culturing. The cells should not exceed passage 30. Prior to the assay the cells were washed and prepared to the concentration of 2×10e6 cells/ml.
Compound dilutions were made as 2×-concentrated solutions then diluted ½ by addition to cells. Two hundred and fifty μl of compound dilution and 250 μl of cells were mixed together in wells of a 96-deep well plate. Cells/compounds premix were incubated 30 min at 37° C. and 5% CO2 directly in the deep well plate.
After pre-incubation of cells with compounds, cells were stimulated with anti-CD28 mAb (clone 15E8) at 3 μg/ml+PMA at 1 μg/ml. Both co-stimulants were diluted in culture medium at a 10×-concentrated solution. 10 μl of co-stimulants were pipetted into the white 96-well plates and 100 μl of cell/compound mix was immediately added in duplicates. The cells were stimulated for 5.5 h at 37° C. and 5% CO2.
After cell stimulation, 50 μl of BriteLitePlus reagent (Perkin Elmer) was added to each well and the bioluminescence was measured with a Wallac EnVision reader (Perkin Elmer).

[1] = […], heading: IL2 reporter gene assay IC50, anti-CD28 mAb + PMA stimulation 5.5 h

Compound | IC50 [1] [nM] | IC50 (anti-CD28 mAb + PMA stimulation 5.5 h) [nM]
COC[C@H](C)c1c(NC(=O)Nc2cnc(-n3nccn3)c(C(F)(F)F)c2)cnc2cc(Cl)nn12 [Example 111, (R)-1-(6-(2H-1,2,3-triazol-2-yl)-5-(trifluoromethyl)pyridin-3-yl)-3-(2-chloro-7-(1-methoxypropan-2-yl)pyrazolo[1,5-a]pyrimidin-6-yl)urea] | 138 | 
CO[C@@H](C)c1c(NC(=O)Nc2cnc(OC(F)F)c(Cl)c2)cnc2cc(Cl)nn12 [Example 93, (S)-1-(5-chloro-6-(difluoromethoxy)pyridin-3-yl)-3-(2-chloro-7-(1-methoxyethyl)pyrazolo[1,5-a]pyrimidin-6-yl)urea] | 59 | 
COCC1(c2c(NC(=O)Nc3cnc(-n4nccn4)c(Cl)c3)cnc3cc(Cl)nn23)CCCO1 (stereo not drawn) [Example 91, 1-(5-chloro-6-(2H-1,2,3-triazol-2-yl)pyridin-3-yl)-3-(2-chloro-7-(2-(methoxymethyl)tetrahydrofuran-2-yl)pyrazolo[1,5-a]pyrimidin-6-yl)urea] | 50 | 
CC1(c2c(NC(=O)Nc3cnc(-n4nccn4)c(Cl)c3)cnc3cc(Cl)nn23)CC1 [Example 16, 1-(5-chloro-6-(2H-1,2,3-triazol-2-yl)pyridin-3-yl)-3-(2-chloro-7-(1-methylcyclopropyl)pyrazolo[1,5-a]pyrimidin-6-yl)urea] | 207 | 
CCOc1ncc(NC(=O)Nc2cnc3cc(Cl)nn3c2C(C)C)cc1Cl [Example 25, 1-(5-chloro-6-ethoxypyridin-3-yl)-3-(2-chloro-7-isopropylpyrazolo[1,5-a]pyrimidin-6-yl)urea] | 248 | 
Cc1c(NC(=O)Nc2cnc(-n3nccn3)c(Cl)c2)cnc2cc(Cl)nn12 [Example 62, 1-(5-chloro-6-(2H-1,2,3-triazol-2-yl)pyridin-3-yl)-3-(2-chloro-7-methylpyrazolo[1,5-a]pyrimidin-6-yl)urea] | 140 | 
CN1CCOCC1Cc1c(NC(=O)Nc2cnc(-n3nccn3)c(Cl)c2)cnc2cc(Cl)nn12 (stereo not drawn) [Example 83, 1-(5-chloro-6-(2H-1,2,3-triazol-2-yl)pyridin-3-yl)-3-(2-chloro-7-((4-methylmorpholin-3-yl)methyl)pyrazolo[1,5-a]pyrimidin-6-yl)urea] | 13 | 
CO[C@@H](c1c(NC(=O)Nc2cnc(-n3nccn3)c(Cl)c2)cnc2cc(Cl)nn12)C(C)C [Example 5, (R)-1-(5-chloro-6-(2H-1,2,3-triazol-2-yl)pyridin-3-yl)-3-(2-chloro-7-(1-methoxy-2-methylpropyl)pyrazolo[1,5-a]pyrimidin-6-yl)urea] | 52 | 
COC[C@@H](C)c1c(NC(=O)Nc2cnc(-n3nccn3)c(C(F)(F)F)c2)cnc2cc(Cl)nn12 [Example 110, (S)-1-(6-(2H-1,2,3-triazol-2-yl)-5-(trifluoromethyl)pyridin-3-yl)-3-(2-chloro-7-(1-methoxypropan-2-yl)pyrazolo[1,5-a]pyrimidin-6-yl)urea] | 41 | 
CO[C@@H](C)c1c(NC(=O)Nc2ccnc(C(F)(F)F)c2)cnc2cc(F)nn12 [Example 7, (S)-1-(2-fluoro-7-(1-methoxyethyl)pyrazolo[1,5-a]pyrimidin-6-yl)-3-(2-(trifluoromethyl)pyridin-4-yl)urea] | 33 | 
COCCO[C@@H](C)c1c(NC(=O)Nc2cnc(OC(F)F)c(Cl)c2)cnc2cc(Cl)nn12 [Example 97, (S)-1-(5-chloro-6-(difluoromethoxy)pyridin-3-yl)-3-(2-chloro-7-(1-(2-methoxyethoxy)ethyl)pyrazolo[1,5-a]pyrimidin-6-yl)urea] | 218 | 
CC(C)c1c(NC(=O)Nc2ccc(-n3nccn3)c(Cl)c2)cnc2cc(Cl)nn12 [Example 20, l-(3-chloro-4-(2H-1,2,3-triazol-2-yl)phenyl)-3-(2-chloro-7-isopropylpyrazolo [1,5-a]pyrimidin-6-yl)urea] | 100 | 
COC(=O)c1cc(Cl)cc(NC(=O)Nc2cnc3cc(Cl)nn3c2[C@H](C)OC)c1 [Example 13, (S)-methyl 3-chloro-5-(3-(2-chloro-7-(1-methoxyethyl)pyrazolo [1,5-a]pyrimidin-6-yl)ureido)benzoate] | 67 | 
C[C@H](OCCN(C)C)c1c(NC(=O)Nc2cnc(-n3nccn3)c(Cl)c2)cnc2cc(Cl)nn12 [Example 82, (S)-1-(5-chloro-6-(2H-1,2,3-triazol-2-yl)pyridin-3-yl)-3-(2-chloro-7-(1-(2-(dimethylamino)ethoxy)ethyl)pyrazolo[1,5-a]pyrimidin-6-yl)urea] | 16 | 
CC1(c2c(NC(=O)Nc3ccnc(C(F)(F)F)c3)cnc3cc(Cl)nn23)CC1 [Example 17, 1-(2-chloro-7-(1-methylcyclopropyl)pyrazolo[1,5-a]pyrimidin-6-yl)-3-(2-(trifluoromethyl)pyridin-4-yl)urea] | 149 | 
C[C@@H](OCc1ccccc1)c1c(NC(=O)Nc2cnc(-n3nccn3)c(C(F)(F)F)c2)cnc2cc(Cl)nn12 [Example 65, (R)-1-(6-(2H-1,2,3-triazol-2-yl)-5-(trifluoromethyl)pyridin-3-yl)-3-(7-(1-(benzyloxy)ethyl)-2-chloropyrazolo[1,5-a]pyrimidin-6-yl)urea] | 72 | 
COC[C@H](C)c1c(NC(=O)Nc2cnc(-n3nccn3)c(Cl)c2)cnc2cc(Cl)nn12 [Example 45, (R)-1-(5-chloro-6-(2H-1,2,3-triazol-2-yl)pyridin-3-yl)-3-(2-chloro-7-(1-methoxypropan-2-yl)pyrazolo[1,5-a]pyrimidin-6-yl)urea] | 63 | 
CC1(c2c(NC(=O)Nc3ccnc(C(F)(F)F)c3)cnc3cc(Cl)nn23)CCCO1 (stereo not drawn) [Example 36, 1-(2-chloro-7-(2-methyltetrahydrofuran-2-yl)pyrazolo[1,5-a]pyrimidin-6-yl)-3-(2-(trifluoromethyl)pyridin-4-yl)urea] | 43 | 
COCC1(c2c(NC(=O)Nc3ccnc(C(F)(F)F)c3)cnc3cc(Cl)nn23)CCC1 [Example 51, 1-(2-chloro-7-(1-(methoxymethyl)cyclobutyl)pyrazolo[1,5-a]pyrimidin-6-yl)-3-(2-(trifluoromethyl)pyridin-4-yl)urea] | 267 | 
CO[C@@H](C)c1c(NC(=O)Nc2ccnc(Cl)c2)cnc2cc(Cl)nn12 [Example 12, (S)-1-(2-chloro-7-(1-methoxyethyl)pyrazolo [1,5-a]pyrimidin-6-yl)-3-(2-chloropyridin-4-yl)urea] | 39 | 
CO[C@@H](C)c1c(NC(=O)Nc2cnc(-n3nccn3)c(Cl)c2)cnc2cc(C#N)nn12 [Example 96, (S)-1-(5-chloro-6-(2H-1,2,3-triazol-2-yl)pyridin-3-yl)-3-(2-cyano-7-(1-methoxyethyl)pyrazolo[1,5-a]pyrimidin-6-yl)urea] | 52 | 
COc1ncc(NC(=O)Nc2cnc3cc(Cl)nn3c2[C@H](C)OC)cc1Cl [Example 9, (S)-1-(5-chloro-6-methoxypyridin-3-yl)-3-(2-chloro-7-(1-methoxyethyl)pyrazolo [1,5-a]pyrimidin-6-yl)urea] | 19 | 
CO[C@@H](C)c1c(NC(=O)Nc2ccnc(C(F)(F)F)c2)cnc2cc(C)nn12 [Example 6, (S)-1-(7-(1-methoxyethyl)-2-methylpyrazolo[1,5-a]pyrimidin-6-yl)-3-(2-(trifluoromethyl)pyridin-4-yl)urea] | 30 | 
CN(C)C1(c2c(NC(=O)Nc3cnc(-n4nccn4)c(Cl)c3)cnc3cc(Cl)nn23)CC1 [Example 88, 1-(5-chloro-6-(2H-1,2,3-triazol-2-yl)pyridin-3-yl)-3-(2-chloro-7-(1-(dimethylamino)cyclopropyl)pyrazolo[1,5-a]pyrimidin-6-yl)urea] | 84 | 
O=C(Nc1cnc(-n2nccn2)c(C(F)(F)F)c1)Nc1cnc2cc(Cl)nn2c1-c1ccco1 [Example 63, 1-(6-(2H-1,2,3-triazol-2-yl)-5-(trifluoromethyl)pyridin-3-yl)-3-(2-chloro-7-(furan-2-yl)pyrazolo[1,5-a]pyrimidin-6-yl)urea] | 91 | 
COCC1(c2c(NC(=O)Nc3ccnc(C(F)(F)F)c3)cnc3cc(Cl)nn23)CC1 [Example 77, 1-(2-chloro-7-(1-(methoxymethyl)cyclopropyl)pyrazolo[1,5-a]pyrimidin-6-yl)-3-(2-(trifluoromethyl)pyridin-4-yl)urea] | 46 | 
CO[C@@H](C)c1c(NC(=O)Nc2cc(Cl)cnc2OCCN(C)C)cnc2cc(Cl)nn12 [Example 99, (S)-1-(5-chloro-2-(2-(dimethylamino)ethoxy)pyridin-3-yl)-3-(2-chloro-7-(1-methoxyethyl)pyrazolo[1,5-a]pyrimidin-6-yl)urea] | 54 | 
COC(c1c(NC(=O)Nc2ccnc(C(F)(F)F)c2)cnc2cc(Cl)nn12)C1CCOCC1 (stereo not drawn) [Example 90, 1-(2-chloro-7-(methoxy(tetrahydro-2H-pyran-4-yl)methyl)pyrazolo[1,5-a]pyrimidin-6-yl)-3-(2-(trifluoromethyl)pyridin-4-yl)urea] | 14 | 
COCCO[C@@H](C)c1c(NC(=O)Nc2ccnc(C(F)(F)F)c2)cnc2cc(Cl)nn12 [Example 41, (S)-1-(2-chloro-7-(1-(2-methoxyethoxy)ethyl)pyrazolo[1,5-a]pyrimidin-6-yl)-3-(2-(trifluoromethyl)pyridin-4-yl)urea] | 82 | 
CO[C@@H](C)c1c(NC(=O)Nc2ccnc(C(F)(F)F)c2)cnc2cc(Cl)nn12 [Example 2, (S)-1-(2-chloro-7-(1-methoxyethyl)pyrazolo[1,5-a]pyrimidin-6-yl)-3-(2-(trifluoromethyl)pyridin-4-yl)urea] |  | 51
